Laboratory results taken from ChEMBL document CHEMBL4507318, “Data for DCP probe BAY-985” (2021).

Columns and labels:
[1] = target: Ankyrin repeat and protein kinase domain-containing protein 1 (Homo sapiens) (UniProt Q8NFD2)
[2] = target: Dual specificity tyrosine-phosphorylation-regulated kinase 1A (Homo sapiens) (UniProt Q13627)
[3] = target: Alpha-2C adrenergic receptor (Homo sapiens) (UniProt P18825); conditions: Compound concentration 10.0 uM
[4] = target: Serine/threonine-protein kinase 38 (Homo sapiens) (UniProt Q15208)
[5] = system: Proto-oncogene tyrosine-protein kinase receptor Ret (Homo sapiens), P07949 [V804M]
[6] = target: Ephrin type-A receptor 7 (Homo sapiens) (UniProt Q15375)
[7] = target: Cyclin-dependent kinase 11B (Homo sapiens) (UniProt P21127)
[8] = target: Mu-type opioid receptor (Homo sapiens) (UniProt P35372); conditions: Compound concentration 10.0 uM
[9] = system: Tyrosine-protein kinase ABL1 (Homo sapiens), P00519 [T315I]
[10] = target: Focal adhesion kinase 1 (Homo sapiens) (UniProt Q05397)
[11] = target: Calcium/calmodulin-dependent protein kinase type 1D (Homo sapiens) (UniProt Q8IU85)
[12] = target: MAP kinase-interacting serine/threonine-protein kinase 1 (Homo sapiens) (UniProt Q9BUB5)
[13] = target: Ephrin type-B receptor 4 (Homo sapiens) (UniProt P54760)
[14] = target: Tyrosine-protein kinase TXK (Homo sapiens) (UniProt P42681)
[15] = target: Serine/threonine-protein kinase RIO2 (Homo sapiens) (UniProt Q9BVS4)
[16] = target: Tyrosine-protein kinase Fes/Fps (Homo sapiens) (UniProt P07332)
[17] = target: Insulin receptor-related protein (Homo sapiens) (UniProt P14616)
[18] = target: Tyrosine-protein kinase ZAP-70 (Homo sapiens) (UniProt P43403)
[19] = target: Serine/threonine-protein kinase PLK1 (Homo sapiens) (UniProt P53350)
[20] = target: Ribosomal protein S6 kinase alpha-3 (Homo sapiens) (UniProt P51812)
[21] = target: Sigma intracellular receptor 2 (Homo sapiens, UniProt Q5BJF2); conditions: Compound concentration 10.0 uM
[22] = target: Interleukin-1 receptor-associated kinase 3 (Homo sapiens) (UniProt Q9Y616)
[23] = target: Mitogen-activated protein kinase kinase kinase 3 (Homo sapiens) (UniProt Q99759)
[24] = target: Tyrosine-protein kinase Mer (Homo sapiens) (UniProt Q12866)
[25] = target: Myotonin-protein kinase (Homo sapiens) (UniProt Q09013)
[26] = target: Non-receptor tyrosine-protein kinase TYK2 (Homo sapiens) (UniProt P29597)
[27] = target: Phosphatidylinositol 3-kinase C2 domain-containing subunit gamma (Homo sapiens) (UniProt O75747)
[28] = target: 5-hydroxytryptamine receptor 2C (Homo sapiens) (UniProt P28335); conditions: Compound concentration 10.0 uM
[29] = target: Serine/threonine-protein kinase N1 (Homo sapiens) (UniProt Q16512)
[30] = target: Serine/threonine-protein kinase PAK 1 (Homo sapiens) (UniProt Q13153)
[31] = system: Phosphatidylinositol 4,5-bisphosphate 3-kinase catalytic subunit alpha isoform (Homo sapiens), P42336 [C420R]
[32] = target: Ephrin type-A receptor 6 (Homo sapiens) (UniProt Q9UF33)
[33] = target: D(1A) dopamine receptor (Homo sapiens) (UniProt P21728); conditions: Compound concentration 10.0 uM
[34] = target: Mitogen-activated protein kinase 6 (Homo sapiens) (UniProt Q16659)
[35] = target: Testis-specific serine/threonine-protein kinase 1 (Homo sapiens) (UniProt Q9BXA7)
[36] = target: RAC-beta serine/threonine-protein kinase (Homo sapiens) (UniProt P31751)
[37] = system: Mast/stem cell growth factor receptor Kit (Homo sapiens), P10721 [A829P]
[38] = system: Receptor-type tyrosine-protein kinase FLT3 (Homo sapiens), P36888 [UNDEFINED MUTATION]
[39] = target: Death-associated protein kinase 2 (Homo sapiens) (UniProt Q9UIK4)
[40] = system: Mast/stem cell growth factor receptor Kit (Homo sapiens), P10721 [D816H]
[41] = target: Cyclin-dependent kinase 9 (Homo sapiens) (UniProt P50750)
[42] = target: Mitogen-activated protein kinase 9 (Homo sapiens) (UniProt P45984)
[43] = target: Rho-associated protein kinase 2 (Homo sapiens) (UniProt O75116)
[44] = target: Calcium/calmodulin-dependent protein kinase type 1 (Homo sapiens) (UniProt Q14012)
[45] = target: Phosphorylase b kinase regulatory subunit alpha, liver isoform (Homo sapiens) (UniProt P46019)
[46] = Compound concentration 1000.0 nM
[47] = Compound concentration 100.0 nM

Testis-specific serine/threonine-protein kinase 1 (Homo sapiens), sequence (Q9BXA7 whole entry): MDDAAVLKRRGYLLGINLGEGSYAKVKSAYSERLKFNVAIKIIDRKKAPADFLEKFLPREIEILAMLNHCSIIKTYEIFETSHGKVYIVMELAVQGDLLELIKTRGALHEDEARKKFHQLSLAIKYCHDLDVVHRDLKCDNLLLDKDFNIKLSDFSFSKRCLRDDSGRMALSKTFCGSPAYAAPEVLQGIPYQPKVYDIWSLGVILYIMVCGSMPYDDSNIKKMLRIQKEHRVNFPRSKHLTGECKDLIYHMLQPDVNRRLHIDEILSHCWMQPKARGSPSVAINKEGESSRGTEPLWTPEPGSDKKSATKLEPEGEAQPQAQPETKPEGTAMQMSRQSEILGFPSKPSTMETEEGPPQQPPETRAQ
Serine/threonine-protein kinase PAK 1 (Homo sapiens), sequence (Q13153 whole entry, canonical isoform): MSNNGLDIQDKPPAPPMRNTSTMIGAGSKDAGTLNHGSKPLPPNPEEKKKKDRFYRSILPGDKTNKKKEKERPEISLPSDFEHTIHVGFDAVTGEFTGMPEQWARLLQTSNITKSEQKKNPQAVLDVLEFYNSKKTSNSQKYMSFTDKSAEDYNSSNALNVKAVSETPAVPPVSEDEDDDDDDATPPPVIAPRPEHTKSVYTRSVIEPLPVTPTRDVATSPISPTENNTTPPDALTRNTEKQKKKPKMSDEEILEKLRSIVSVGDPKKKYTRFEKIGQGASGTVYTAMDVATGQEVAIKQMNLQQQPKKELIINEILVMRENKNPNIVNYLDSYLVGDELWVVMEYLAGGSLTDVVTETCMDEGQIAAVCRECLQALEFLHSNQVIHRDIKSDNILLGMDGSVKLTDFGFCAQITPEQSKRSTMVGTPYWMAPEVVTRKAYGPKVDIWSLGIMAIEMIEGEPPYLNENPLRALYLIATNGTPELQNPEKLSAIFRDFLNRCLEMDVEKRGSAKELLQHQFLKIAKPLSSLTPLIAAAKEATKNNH
Ribosomal protein S6 kinase alpha-3 (Homo sapiens), sequence (P51812 whole entry): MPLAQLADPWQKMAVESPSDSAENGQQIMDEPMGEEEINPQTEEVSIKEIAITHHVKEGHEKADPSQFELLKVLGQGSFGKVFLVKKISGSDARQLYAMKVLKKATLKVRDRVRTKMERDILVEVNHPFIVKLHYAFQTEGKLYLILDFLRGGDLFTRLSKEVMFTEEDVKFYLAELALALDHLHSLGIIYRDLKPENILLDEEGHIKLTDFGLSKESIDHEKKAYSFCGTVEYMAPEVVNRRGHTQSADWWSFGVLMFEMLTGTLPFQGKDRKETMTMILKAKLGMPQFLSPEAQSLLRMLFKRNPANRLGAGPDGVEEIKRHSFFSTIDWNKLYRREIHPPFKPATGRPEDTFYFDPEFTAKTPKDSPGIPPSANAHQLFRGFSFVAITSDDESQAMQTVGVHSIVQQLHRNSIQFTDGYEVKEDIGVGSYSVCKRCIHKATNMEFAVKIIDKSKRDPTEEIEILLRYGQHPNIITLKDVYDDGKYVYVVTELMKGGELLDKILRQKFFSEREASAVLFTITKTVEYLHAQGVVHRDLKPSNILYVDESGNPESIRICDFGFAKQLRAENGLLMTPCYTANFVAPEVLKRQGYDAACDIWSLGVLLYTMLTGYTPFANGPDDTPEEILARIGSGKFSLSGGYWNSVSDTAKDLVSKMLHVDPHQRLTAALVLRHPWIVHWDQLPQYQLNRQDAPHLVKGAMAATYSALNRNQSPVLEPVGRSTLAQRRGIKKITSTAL
Tyrosine-protein kinase Mer (Homo sapiens), sequence (Q12866 whole entry): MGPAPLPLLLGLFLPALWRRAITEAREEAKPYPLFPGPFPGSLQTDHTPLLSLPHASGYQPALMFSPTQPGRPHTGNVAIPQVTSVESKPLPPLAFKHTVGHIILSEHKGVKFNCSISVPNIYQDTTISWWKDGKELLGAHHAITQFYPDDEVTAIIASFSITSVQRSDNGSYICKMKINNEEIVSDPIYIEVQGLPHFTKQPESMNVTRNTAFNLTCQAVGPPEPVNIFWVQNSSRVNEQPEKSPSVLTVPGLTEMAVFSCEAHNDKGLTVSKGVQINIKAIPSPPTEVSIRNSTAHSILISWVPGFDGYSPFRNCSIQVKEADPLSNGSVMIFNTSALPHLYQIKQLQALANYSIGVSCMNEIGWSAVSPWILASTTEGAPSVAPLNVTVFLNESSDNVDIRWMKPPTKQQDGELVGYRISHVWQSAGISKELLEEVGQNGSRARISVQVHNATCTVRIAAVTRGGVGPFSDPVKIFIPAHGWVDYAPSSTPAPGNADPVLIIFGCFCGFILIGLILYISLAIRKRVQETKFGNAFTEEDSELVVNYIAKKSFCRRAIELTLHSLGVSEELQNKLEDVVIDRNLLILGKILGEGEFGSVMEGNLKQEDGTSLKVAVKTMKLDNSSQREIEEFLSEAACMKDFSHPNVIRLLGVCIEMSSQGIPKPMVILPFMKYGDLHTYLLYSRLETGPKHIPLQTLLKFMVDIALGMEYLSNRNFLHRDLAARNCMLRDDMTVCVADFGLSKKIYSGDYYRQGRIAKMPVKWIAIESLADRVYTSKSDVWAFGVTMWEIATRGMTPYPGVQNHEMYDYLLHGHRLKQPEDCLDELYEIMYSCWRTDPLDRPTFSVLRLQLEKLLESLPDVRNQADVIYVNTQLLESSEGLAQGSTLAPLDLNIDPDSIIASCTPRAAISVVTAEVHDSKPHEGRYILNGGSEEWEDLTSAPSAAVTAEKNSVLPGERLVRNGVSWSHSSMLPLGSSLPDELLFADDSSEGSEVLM
Phosphatidylinositol 3-kinase C2 domain-containing subunit gamma (Homo sapiens), sequence (O75747 whole entry, the tested form may be a part): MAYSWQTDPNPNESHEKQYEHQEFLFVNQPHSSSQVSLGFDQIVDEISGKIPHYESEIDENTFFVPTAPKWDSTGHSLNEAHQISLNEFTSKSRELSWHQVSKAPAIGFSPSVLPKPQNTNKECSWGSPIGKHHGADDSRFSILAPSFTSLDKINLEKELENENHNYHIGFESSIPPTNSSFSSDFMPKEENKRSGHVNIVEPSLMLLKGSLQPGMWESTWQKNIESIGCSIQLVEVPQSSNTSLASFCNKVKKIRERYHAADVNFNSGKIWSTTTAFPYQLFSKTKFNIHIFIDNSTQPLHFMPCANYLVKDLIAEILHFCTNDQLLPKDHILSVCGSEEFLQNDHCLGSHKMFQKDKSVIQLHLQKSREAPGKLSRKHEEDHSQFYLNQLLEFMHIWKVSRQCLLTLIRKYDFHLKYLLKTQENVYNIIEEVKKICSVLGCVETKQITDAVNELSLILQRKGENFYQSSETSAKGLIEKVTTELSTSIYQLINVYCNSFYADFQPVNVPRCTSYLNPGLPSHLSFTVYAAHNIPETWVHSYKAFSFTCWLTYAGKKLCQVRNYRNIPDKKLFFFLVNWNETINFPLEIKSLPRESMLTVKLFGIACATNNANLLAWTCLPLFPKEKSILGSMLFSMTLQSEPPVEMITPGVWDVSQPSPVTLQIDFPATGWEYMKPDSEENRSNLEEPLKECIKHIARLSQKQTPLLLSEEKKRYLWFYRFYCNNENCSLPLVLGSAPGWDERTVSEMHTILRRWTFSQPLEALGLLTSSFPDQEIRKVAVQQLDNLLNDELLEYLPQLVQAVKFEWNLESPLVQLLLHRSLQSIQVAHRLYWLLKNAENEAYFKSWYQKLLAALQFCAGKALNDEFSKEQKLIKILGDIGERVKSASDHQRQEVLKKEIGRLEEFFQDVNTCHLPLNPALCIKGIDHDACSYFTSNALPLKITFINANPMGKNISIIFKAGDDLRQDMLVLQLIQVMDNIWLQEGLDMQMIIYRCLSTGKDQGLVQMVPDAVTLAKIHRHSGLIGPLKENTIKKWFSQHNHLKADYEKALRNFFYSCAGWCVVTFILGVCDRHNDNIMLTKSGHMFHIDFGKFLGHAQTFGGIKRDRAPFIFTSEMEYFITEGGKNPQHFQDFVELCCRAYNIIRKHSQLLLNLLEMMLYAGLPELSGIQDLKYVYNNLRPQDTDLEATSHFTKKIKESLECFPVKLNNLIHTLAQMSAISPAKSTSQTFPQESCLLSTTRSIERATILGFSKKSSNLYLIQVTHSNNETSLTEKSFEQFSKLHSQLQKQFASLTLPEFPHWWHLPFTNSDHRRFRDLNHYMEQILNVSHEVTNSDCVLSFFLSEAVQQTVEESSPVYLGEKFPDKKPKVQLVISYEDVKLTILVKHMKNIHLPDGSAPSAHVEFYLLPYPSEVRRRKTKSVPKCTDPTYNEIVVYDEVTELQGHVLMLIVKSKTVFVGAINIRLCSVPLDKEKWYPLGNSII
D(1A) dopamine receptor (Homo sapiens), sequence (P21728 whole entry): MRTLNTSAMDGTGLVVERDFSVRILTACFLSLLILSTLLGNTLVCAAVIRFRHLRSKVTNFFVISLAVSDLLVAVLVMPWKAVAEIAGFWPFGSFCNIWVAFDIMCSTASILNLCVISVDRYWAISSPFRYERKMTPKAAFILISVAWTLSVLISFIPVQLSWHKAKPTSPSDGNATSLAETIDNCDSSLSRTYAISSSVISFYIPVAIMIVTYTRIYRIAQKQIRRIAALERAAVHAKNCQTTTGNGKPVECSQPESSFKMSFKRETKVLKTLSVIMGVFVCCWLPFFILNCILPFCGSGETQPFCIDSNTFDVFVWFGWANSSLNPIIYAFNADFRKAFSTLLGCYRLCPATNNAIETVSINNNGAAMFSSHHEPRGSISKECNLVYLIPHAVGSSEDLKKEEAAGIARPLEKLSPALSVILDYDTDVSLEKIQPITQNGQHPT
RAC-beta serine/threonine-protein kinase (Homo sapiens), sequence (P31751 whole entry): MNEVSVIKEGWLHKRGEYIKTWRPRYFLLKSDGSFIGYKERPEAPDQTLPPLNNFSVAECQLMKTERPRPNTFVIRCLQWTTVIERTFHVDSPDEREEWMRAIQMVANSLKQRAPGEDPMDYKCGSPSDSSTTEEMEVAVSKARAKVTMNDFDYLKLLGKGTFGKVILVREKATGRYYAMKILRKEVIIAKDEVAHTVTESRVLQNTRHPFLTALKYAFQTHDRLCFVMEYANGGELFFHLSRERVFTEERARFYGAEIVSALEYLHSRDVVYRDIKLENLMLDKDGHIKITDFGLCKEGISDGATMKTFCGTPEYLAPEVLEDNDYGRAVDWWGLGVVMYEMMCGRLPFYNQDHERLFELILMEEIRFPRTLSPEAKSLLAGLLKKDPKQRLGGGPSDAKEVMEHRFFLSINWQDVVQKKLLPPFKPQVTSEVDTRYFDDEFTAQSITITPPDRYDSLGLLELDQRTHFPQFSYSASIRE

CN(C)c1ncnc(-c2ccc3nc(Nc4cc(CN5CCN(C(=O)CC(F)(F)F)CC5)ccn4)[nH]c3c2)c1Cl [BAY-440]
active: residual activity [9, 46] 46% | inhibition [21] 68.1% | residual activity [38, 46] 35% | residual activity [42, 46] 47%
inactive: residual activity [1, 46] 57% | residual activity [2, 46] 77% | inhibition [3] 7.09% | residual activity [4, 46] 80% | residual activity [5, 46] 93% | residual activity [6, 46] 100% | residual activity [7, 46] 100% | inhibition [8] 14.1% | residual activity [10, 46] 100% | residual activity [11, 46] 100% | residual activity [12, 46] 62% | residual activity [13, 46] 100% | residual activity [14, 46] 95% | residual activity [15, 46] 81% | residual activity [16, 46] 100% | residual activity [17, 46] 95% | residual activity [18, 46] 100% | residual activity [19, 46] 59% | residual activity [20, 46] 81% | residual activity [22, 46] 97% | residual activity [23, 46] 50% | residual activity [24, 46] 87% | residual activity [25, 46] 91% | residual activity [26, 46] 77% | residual activity [27, 46] 83% | inhibition [28] 0.02% | residual activity [29, 46] 100% | residual activity [30, 46] 100% | residual activity [31, 46] 88% | residual activity [32, 46] 100% | inhibition [33] 23% | residual activity [34, 46] 100% | residual activity [35, 46] 100% | residual activity [36, 46] 95% | residual activity [37, 46] 53% | residual activity [39, 46] 100% | residual activity [40, 46] 75% | residual activity [41, 46] 100% | residual activity [43, 46] 91% | residual activity [44, 46] 100% | residual activity [45, 46] 100%

C[C@H](c1ccnc(Nc2nc3ccc(-c4cc(N(C)C)ncn4)cc3[nH]2)c1)N1CCN(C(=O)CC(F)(F)F)CC1 [BAY-985]
inactive: residual activity [1, 47] 99% | residual activity [2, 47] 98% | inhibition [3] 9.82% | residual activity [4, 47] 100% | residual activity [5, 47] 76% | residual activity [6, 47] 100% | residual activity [7, 47] 100% | inhibition [8] 26% | residual activity [9, 47] 100% | residual activity [10, 47] 100% | residual activity [11, 47] 95% | residual activity [12, 47] 92% | residual activity [13, 47] 100% | residual activity [14, 47] 96% | residual activity [15, 47] 100% | residual activity [16, 47] 75% | residual activity [17, 47] 100% | residual activity [18, 47] 100% | residual activity [19, 47] 100% | residual activity [20, 47] 100% | residual activity [22, 47] 76% | residual activity [23, 47] 100% | residual activity [24, 47] 97% | residual activity [25, 47] 100% | residual activity [26, 47] 100% | residual activity [27, 47] 94% | inhibition [28] 11.4% | residual activity [29, 47] 100% | residual activity [30, 47] 77% | residual activity [31, 47] 100% | residual activity [32, 47] 93% | inhibition [33] 1.63% | residual activity [34, 47] 86% | residual activity [35, 47] 100% | residual activity [36, 47] 100% | residual activity [37, 47] 83% | residual activity [39, 47] 74% | residual activity [40, 47] 82% | residual activity [41, 47] 100% | residual activity [42, 47] 89% | residual activity [43, 47] 100% | residual activity [44, 47] 88% | residual activity [45, 47] 81%
active: inhibition [21] 54.1% | residual activity [38, 47] 42%
